The experiment addresses T1, hamster SUR1 (Cricetus cricetus, UniProt Q09427).
T1 construct: expressed in transfected cells; host or cells: COS-1 cells, transient transfection (pcDNA vector), membrane preparation
Put plainly: Competitive binding to sulfonylurea and KCO sites of SUR1 ([3H]glibenclamide displacement, COS-cell membranes). Conditions: SUR1 versus SUR2 selectivity, in words. The protocol: Competitive binding experiments were performed to characterize the affinity of the test compounds for the binding sites for sulfonylureas and KATP channel openers (=KCOs) on hamster SUR1. To assess the affinity for the sulfonylurea site membranes from COS-cells transiently expressing hamster SUR1 were incubated in the presence of [^3H]glibenclamide with increasing concentrations of test compounds. […] Per curve 9-15 distinct concentrations were tested covering the relevant range. All measurements were repeated at least 5 times in independent experiments.
[^3H]glibenclamide (specific activity 51 Ci mmol^−1) was obtained from NEN (Dreieich, Germany). If suitable, stock solutions were prepared in dimethylsulfoxide with a final solvent concentration in the media below 1%.
SUR- or Kir6.x isoforms were used either subcloned in the pcDNA (hamster SUR1, mouse Kir6.2) or pCMV vector (rat SUR2A, SUR2B).
For transfection the cells were incubated 4 hours in a Tris-buffered salt solution containing DNA (5-10 μg/ml) plus DEAE-dextran (1 mg/ml), 2 min in HEPES-buffered salt solution plus dimethylsulfoxide (10%) and 4 hours in DMEM-HG plus chloroquine (100 μM). Cells were then returned to DMEM-HG plus 10% FCS. […] For binding experiments resuspended membranes (final protein concentration 5-50 μg/ml) were incubated in “Tris-buffer” (50 mM, pH 7.4) containing either [^3H]glibenclamide (final concentration 0.3 nM or 3 nM and nonspecific binding defined by 100 nM or 1 μM glibenclamide for SUR1 or SUR2Y1205S-isoforms, respectively) or [^3H]P1075 (final concentration 3 nM, nonspecific binding defined by 100 μM pinacidil) and increasing concentrations of the test compounds. […] Incubations were carried out for 1 h at room temperature and were terminated by rapid filtration through Whatman GF/B filters.
The inhibition constant (Ki value) of the test substances was calculated from the respective IC50 value, and was stated as the negative logarithmised value thereof (pKi).

Each structure is given as a SMILES string.

T1 sequence (Q09427 whole entry): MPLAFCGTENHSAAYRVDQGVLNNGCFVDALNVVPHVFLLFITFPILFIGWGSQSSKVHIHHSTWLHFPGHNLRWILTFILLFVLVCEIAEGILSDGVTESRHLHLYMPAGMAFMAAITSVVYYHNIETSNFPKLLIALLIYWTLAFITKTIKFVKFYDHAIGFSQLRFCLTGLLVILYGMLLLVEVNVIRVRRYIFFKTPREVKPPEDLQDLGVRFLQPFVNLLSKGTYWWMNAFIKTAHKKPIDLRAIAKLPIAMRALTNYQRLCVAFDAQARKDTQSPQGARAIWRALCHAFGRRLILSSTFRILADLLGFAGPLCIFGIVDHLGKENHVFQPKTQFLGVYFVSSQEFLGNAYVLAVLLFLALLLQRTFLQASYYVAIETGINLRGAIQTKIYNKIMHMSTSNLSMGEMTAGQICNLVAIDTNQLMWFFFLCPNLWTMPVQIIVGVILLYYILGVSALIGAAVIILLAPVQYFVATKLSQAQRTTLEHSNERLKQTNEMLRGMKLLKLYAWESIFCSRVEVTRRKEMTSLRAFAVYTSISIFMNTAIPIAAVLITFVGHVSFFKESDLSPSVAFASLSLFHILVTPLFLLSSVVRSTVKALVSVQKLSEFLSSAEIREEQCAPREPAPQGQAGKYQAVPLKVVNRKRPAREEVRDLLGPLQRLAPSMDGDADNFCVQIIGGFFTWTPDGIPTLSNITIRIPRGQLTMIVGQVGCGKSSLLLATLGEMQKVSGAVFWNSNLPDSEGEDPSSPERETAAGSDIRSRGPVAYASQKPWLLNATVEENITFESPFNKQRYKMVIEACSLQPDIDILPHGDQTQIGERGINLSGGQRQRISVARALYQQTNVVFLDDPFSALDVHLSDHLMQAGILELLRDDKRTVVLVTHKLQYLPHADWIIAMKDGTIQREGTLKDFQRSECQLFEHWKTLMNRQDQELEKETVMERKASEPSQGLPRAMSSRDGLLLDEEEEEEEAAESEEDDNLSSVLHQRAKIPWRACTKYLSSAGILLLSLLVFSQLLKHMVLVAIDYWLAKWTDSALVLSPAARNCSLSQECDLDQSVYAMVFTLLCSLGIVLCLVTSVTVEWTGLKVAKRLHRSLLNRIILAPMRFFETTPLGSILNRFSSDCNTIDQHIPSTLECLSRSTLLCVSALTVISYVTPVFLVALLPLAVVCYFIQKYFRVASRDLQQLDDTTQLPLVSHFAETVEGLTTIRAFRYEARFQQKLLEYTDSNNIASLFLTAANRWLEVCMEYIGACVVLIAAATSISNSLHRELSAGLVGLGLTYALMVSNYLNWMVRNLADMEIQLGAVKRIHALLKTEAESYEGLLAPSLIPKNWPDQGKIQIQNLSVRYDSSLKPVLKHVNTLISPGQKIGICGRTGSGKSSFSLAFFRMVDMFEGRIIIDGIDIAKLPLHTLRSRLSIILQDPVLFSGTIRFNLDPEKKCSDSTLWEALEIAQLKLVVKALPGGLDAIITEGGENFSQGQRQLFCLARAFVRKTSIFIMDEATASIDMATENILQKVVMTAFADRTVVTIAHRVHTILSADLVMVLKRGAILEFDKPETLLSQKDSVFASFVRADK

On to `CCCCCc1nc(-c2ccc(Cl)cc2Cl)n(-c2ccc(Cl)cc2)c1C` [1-(4-chlorophenyl)-2-(2,4-dichlorophenyl)-5-methyl-4-pentyl-1H-imidazole], for which the “pki (SUR1) compared with pki (SUR2)” value is recorded as “pki (SUR1) larger than pki (SUR2)”.
Consider `CNC(=NS(=O)(=O)N1CCOCC1)C1=NN(c2ccc(Cl)cc2Cl)C(c2ccccc2)C1` (stereo not drawn) [1-(2,4-dichlorophenyl)-N-methyl-N′-(morpholin-4-ylsulfonyl)-5-phenyl-4,5-dihydro-1H-pyrazole-3-carboximidamide], for which the “pki (SUR1) compared with pki (SUR2)” value is “pki (SUR1) larger than pki (SUR2)”.
As for `CCC1CN=C(N2CC(c3ccccc3)C(c3ccc(Cl)cc3)=N2)O1` (stereo not drawn) [2-[3-(4-chlorophenyl)-4-phenyl-4,5-dihydro-1H-pyrazol-1-yl]-5-ethyl-4,5-dihydro-1,3-oxazole], the “pki (SUR1) compared with pki (SUR2)” value was “pki (SUR1) larger than pki (SUR2)”.
Then `CNC(=NS(=O)(=O)N1CCOCC1)N1CC(c2ccccc2)C(c2ccc(Cl)cc2)=N1` (stereo not drawn) [3-(4-chlorophenyl)-N-methyl-N′-(morpholin-4-ylsulfonyl)-4-phenyl-4,5-dihydro-1H-pyrazole-1-carboximidamide], with “pki (SUR1) larger than pki (SUR2)”; and `Cc1c(NC(=O)c2ccccc2)nc(-c2ccc(Cl)cc2Cl)n1-c1ccc(Cl)cc1` [N-[1-(4-chlorophenyl)-2-(2,4-di-chlorophenyl)-5-methyl-1H-imidazol-4-yl]benzamide], with “pki (SUR1) larger than pki (SUR2)”; and `CNC(=NS(=O)(=O)c1ccc(Cl)cc1)N1CC(c2cccnc2)C(c2ccc(Cl)cc2)=N1` (stereo not drawn) [3-(4-chlorophenyl)-N′-[(4-chlorophenyl)sulfonyl]-N-methyl-4-pyridin-3-yl-4,5-dihydro-1H-pyrazole-1-carboximidamide], with “pki (SUR1) larger than pki (SUR2)”.
As for `CN(C)S(=O)(=O)N=C(NCCF)N1CC(c2ccccc2)C(c2ccc(Cl)cc2)=N1` (stereo not drawn) [3-(4-chlorophenyl)-N′-[(dimethylamino)sulfonyl]-N-(2-fluoro-ethyl)-4-phenyl4,5-dihydro-1H-pyrazole-1-carboximidamide], the “pki (SUR1) compared with pki (SUR2)” value is “pki (SUR1) larger than pki (SUR2)”.
Then `O=C1c2ccccc2S(=O)(=O)N1C1CN(C(c2ccc(Cl)cc2)c2ccc(Cl)cc2)C1` [2-{1-[bis(4-chlorophenyl)methyl]azetidin-3-yl}-1,2-benzisothiazol-3(2H)-one 1,1-dioxide], with “pki (SUR1) larger than pki (SUR2)”.
`CCCCCNC(=O)c1nc(-c2ccc(Cl)cc2Cl)n(-c2ccc(Br)cc2)c1CC` [1-(4-bromophenyl)-2-(2,4-dichlorophenyl)-5-ethyl-N-pentyl-1H-imidazole-4-carboxamide]: the “pki (SUR1) compared with pki (SUR2)” value is reported as “pki (SUR1) larger than pki (SUR2)”.
In the case of `CCc1c(C(=O)NN2CCCCC2)nc(-c2ccc(Cl)cc2Cl)n1-c1ccc(Br)cc1` [1-(4-bromophenyl)-2-(2,4-dichloro-phenyl)-5-ethyl-N-piperidin-1-yl-1H-imidazole-4-carboxamide], the “pki (SUR1) compared with pki (SUR2)” value is recorded as “pki (SUR1) larger than pki (SUR2)”.
Then `O=C(NS(=O)(=O)c1ccc(Cl)cc1)c1cc(-c2ccc(Br)cc2)n(-c2ccc(Cl)cc2Cl)n1` [5-(4-bromophenyl)-N-[(4-chlorophenyl)sulfonyl]-1-(2,4-dichlorophenyl)-1H-pyrazole-3-carboxamide], with “pki (SUR1) larger than pki (SUR2)”; and `NC(=NS(=O)(=O)c1ccc(Cl)cc1)N1CC(c2ccccc2)C(c2ccc(Cl)cc2)=N1` (stereo not drawn) [3-(4-chlorophenyl)-N′-[(4-chlorophenyl)sulfonyl]-4-phenyl-4,5-dihydro-1H-pyrazole-1-carboximidamide], with “pki (SUR1) larger than pki (SUR2)”.
Turning to `CNC(=NS(=O)(=O)N1CCCCC1)C1=NN(c2ccc(Cl)cc2)C(c2ccccc2)C1` (stereo not drawn) [1-(4-chlorophenyl)-N-methyl-5-phenyl-N′-(piperidin-1-yl-sulfonyl)-4,5-dihydro-1H-pyrazole-3-carboximidamide], the “pki (SUR1) compared with pki (SUR2)” value was “pki (SUR1) larger than pki (SUR2)”.
Then `CN1CCC(CNC(=NS(=O)(=O)c2ccc(Cl)cc2)N2CC(c3ccccc3)C(c3ccc(Cl)cc3)=N2)C1` (stereo not drawn) [3-(4-chlorophenyl)-N′-[(4-chlorophenyl)sulfonyl]-N-[(1-methylpyrrolidin-3-yl)-methyl]-4-phenyl-4,5-dihydro-1H-pyrazole-1-carboximidamide], with “pki (SUR1) larger than pki (SUR2)”; and `O=S(=O)(N=C(NCc1cccnc1)N1CC(c2ccccc2)C(c2ccc(Cl)cc2)=N1)c1ccc(Cl)cc1` (stereo not drawn) [3-(4-chlorophenyl)-N′-[(4-chlorophenyl)sulfonyl]-4-phenyl-N-(pyridin-3-ylmethyl)-4,5-dihydro-1H-pyrazole-1-carboximidamide], with “pki (SUR1) larger than pki (SUR2)”.
Then `CCCCCCC(C)(C)c1ccc([C@@H]2C[C@H](O)CC[C@H]2CCCO)c(O)c1` [5-(1,1-dimethylheptyl)-2-[(1R,2R,5R)-5-hydroxy-2-(3-hydroxypropyl)cyclohexyl]-phenol], with “pki (SUR1) larger than pki (SUR2)”; and `O=C(NN1CCCCC1)c1nn(-c2ccc(Cl)cc2Cl)c2c1CCCc1cc(Cl)ccc1-2` [8-chloro-1-(2,4-dichlorophenyl)-N-piperidin-1-yl-1,4,5,6-tetrahydrobenzo[6,7]cyclohepta[1,2-c]pyrazole-3-carboxamide], with “pki (SUR1) larger than pki (SUR2)”.
Consider `CNC(=NS(=O)(=O)N(C)C)N1CC(c2cccc(F)c2)C(c2ccc(Cl)cc2)=N1` (stereo not drawn) [3-(4-chlorophenyl)-N′-[(dimethyl-amino)sulfonyl]-4-(3-fluorophenyl)-N-methyl-4,5-dihydro-1H-pyrazole-1-carboximidamide], for which the “pki (SUR1) compared with pki (SUR2)” value is reported as “pki (SUR1) larger than pki (SUR2)”.
Then `CSc1c(C(=O)NC2CCCCC2)nc(-c2ccc(Cl)cc2Cl)n1-c1ccc(Cl)cc1` [1-(4-chlorophenyl)-N-cyclohexyl-2-(2,4-dichlorophenyl)-5-(methylthio)-1H-imidazole-4-carboxamide], with “pki (SUR1) larger than pki (SUR2)”; and `NC(=NS(=O)(=O)c1ccc(Cl)cc1)N1C[C@H](c2ccccc2)C(c2ccc(Cl)cc2)=N1` [(4S)-3-(4-chlorophenyl)-N′-[(4-chlorophenyl)sulfonyl]-4-phenyl-4,5-dihydro-1H-pyrazole-1-carboximidamide], with “pki (SUR1) larger than pki (SUR2)”; and `CCN(CC)C(=O)c1cn(-c2ccc(Cl)cc2)c(-c2ccc(Cl)cc2Cl)n1` [1-(4-chlorophenyl)-2-(2,4-dichlorophenyl)-N,N-diethyl-1H-imidazole-4-carboxamide], with “pki (SUR1) larger than pki (SUR2)”.
With `CS(=O)(=O)C(=C1CN(C(c2ccc(Cl)cc2)c2ccc(Cl)cc2)C1)c1cc(F)cc(F)c1` [1-[bis(4-chlorophenyl)methyl]-3-[(3,5-difluorophenyl)(methylsulfonyl)-methylene]azetidine], the “pki (SUR1) compared with pki (SUR2)” value is on record as “pki (SUR1) larger than pki (SUR2)”.
Then `N[C@@H](Cc1ccc(Cl)c(Cl)c1)C(=O)N1CC(c2ccccc2)C(c2ccc(Cl)cc2)=N1` (stereo partly drawn) [(2S)-1-[3-(4-chlorophenyl)-4-phenyl-4,5-dihydro-1H-pyrazol-1-yl]-3-(3,4-dichloro-phenyl)-1-oxopropan-2-amine], with “pki (SUR1) larger than pki (SUR2)”.
Then `CCCCC(C)(O)c1nc(-c2ccc(Cl)cc2Cl)n(-c2ccc(Cl)cc2)c1C` (stereo not drawn) [2-[1-(4-chlorophenyl)-2-(2,4-dichlorophenyl)-5-methyl-1H-imidazol-4-yl]hexan-2-ol], with “pki (SUR1) larger than pki (SUR2)”.

These data come from patent publication US8058264B2, “Pharmaceutical compositions comprising CB1 cannabinoid receptor antagonists and potassium channel openers for the treatment of obesity and related conditions” (Abbott Products GmbH, priority 2004, dated 2011).
